From ChEMBL document CHEMBL6178019, “Discovery of CYP1A1 Inhibitors for Host-Directed Therapy against Sepsis” (J Med Chem, 2025)
Calls of active or inactive are those of the source. The calls are words filed in the database; no cut-off is given here.

Legend:
CYP1A1 [1] = target: T1, CYP1A1 (Mus musculus, UniProt P00184); assay: Inhibition of CYP1A1 in mouse RAW264.7 cells assessed as relative activity by measuring fold change at 500 nM incubated for 12 hrs by EROD assay relative to control; type: cell-based; details: read-out: FC
T1 sequence (P00184 whole entry): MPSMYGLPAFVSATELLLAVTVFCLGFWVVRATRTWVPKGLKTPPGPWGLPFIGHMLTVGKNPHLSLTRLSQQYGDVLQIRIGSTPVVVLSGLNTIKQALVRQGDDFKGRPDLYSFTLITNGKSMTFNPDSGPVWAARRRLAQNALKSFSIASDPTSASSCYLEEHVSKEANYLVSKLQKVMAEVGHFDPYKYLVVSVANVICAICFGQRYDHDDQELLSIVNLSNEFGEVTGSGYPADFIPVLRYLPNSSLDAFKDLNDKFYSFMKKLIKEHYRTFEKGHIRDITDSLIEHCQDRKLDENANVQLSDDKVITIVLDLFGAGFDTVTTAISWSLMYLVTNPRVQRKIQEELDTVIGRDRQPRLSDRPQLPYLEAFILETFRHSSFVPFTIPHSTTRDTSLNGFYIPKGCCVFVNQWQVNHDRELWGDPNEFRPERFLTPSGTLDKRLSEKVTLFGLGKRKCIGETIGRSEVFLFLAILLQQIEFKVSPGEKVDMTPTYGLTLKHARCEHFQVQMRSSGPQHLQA

CYP1A1 [2] = target: T1, CYP1A1; assay: Inhibition of CYP1A1 in mouse RAW264.7 cells assessed as relative activity by measuring fold change at 5 uM incubated for 12 hrs by EROD assay relative to control; type: cell-based; details: read-out: FC
[3] = Toxicity in male C57BL/6 mouse assessed as effect on alanine transaminase (ALT) level in serum up to 100 mg/kg, ip measured after 12 hrs; type: organism-based; details: in vivo
[4] = Toxicity in male C57BL/6 mouse assessed as effect on aspartate aminotransferase (AST) level in serum up to 100 mg/kg, ip measured after 12 hrs; type: organism-based; details: in vivo
[5] = Toxicity in male C57BL/6 mouse assessed as effect on creatinine level in serum up to 100 mg/kg, ip measured after 12 hrs; type: organism-based; details: in vivo
Staphylococcus aureus [6] = assay: Antibacterial activity methicillin-resistant Staphylococcus aureus infected in C57BL/6 mouse model assessed as increase in survival at 25 mg/kg, ip preadministered for 12 hrs followed by bacterial infection and measured after 60 hrs by Kaplan Meier survival analysis; type: functional, organism-based; details: time 72.0 hrs
Acinetobacter baumannii [7] = assay: Antibacterial activity against Acinetobacter baumannii infected in C57BL/6 mouse assessed as increase in survival at 25 mg/kg, ip preadministered for 12 hrs followed by bacterial infection and measured after 60 hrs by Kaplan Meier survival analysis; type: functional, organism-based; details: time 72.0 hrs
Staphylococcus aureus [8] = assay: Antibacterial activity against methicillin-resistant Staphylococcus aureus infected in CYP1A1 knockout mouse model assessed as increase in survival rate at 25 mg/kg, ip pretreated for 12 hrs followed by bacterial infection and measured after 60 hrs by Kaplan Meier survival analysis; type: functional, organism-based; details: time 72.0 hrs
Mus musculus [9] = assay: Effect on CYP1A1 protein expression in C57BL/6 mouse kidney infected with methicillin-resistant Staphylococcus aureus at 25 mg/kg, ip administered for 12 hrs by Western blot analysis; type: functional, organism-based
Mus musculus [10] = assay: Effect on CYP1A1 protein expression in C57BL/6 mouse liver infected with methicillin-resistant Staphylococcus aureus at 25 mg/kg, ip administered for 12 hrs by Western blot analysis; type: functional, organism-based
Staphylococcus aureus [11] = assay: Antibacterial activity against methicillin-resistant Staphylococcus aureus assessed as inhibition of bacterial growth at 0.02 to 2.5 mg/ml; type: functional, organism-based; details: dose 0.02-2.5 mg/ml
Acinetobacter baumannii [12] = assay: Antibacterial activity against Acinetobacter baumannii assessed as inhibition of bacterial growth at 0.02 to 2.5 mg/ml; type: functional, organism-based; details: dose 0.02-2.5 mg/ml
Acinetobacter baumannii [13] = assay: Antibacterial activity against Acinetobacter baumannii infected in C57BL/6 mouse model assessed as reduction in bacterial load in peritoneal lavage fluid at 25 mg/kg, ip pretreated for 12 hrs followed by bacterial infection and measured after 24 hrs relative to control; type: functional; parameters: scale not given: the % may be the effect or the level left; details: time 36 hrs
RAW264.7 [14] = assay: Induction of phagocytosis in mouse RAW264.7 cells assessed as upregulation of CD68 protein level by flow cytometric analysis; type: functional, cell-based
RAW264.7 [15] = assay: Induction of phagocytosis in mouse RAW264.7 cells assessed as upregulation of SR-A1 mRNA expression by qRT-PCR analysis; type: functional, cell-based
Staphylococcus aureus [16] = assay: Antibacterial activity against methicillin-resistant Staphylococcus aureus infected in C57BL/6 mouse model assessed as reduction in bacterial dissemination from PLF to blood at 25 mg/kg, ip preadministered for 12 hrs followed by bacterial infection and measured after 24 hrs; type: functional, organism-based; details: time 36.0 hrs
RAW264.7 [17] = assay: Induction of phagocytosis in zymosan A stimulated mouse RAW264.7 cells assessed as upregulation of CD68 protein level at 5.0 uM incubated for 12 hrs by flow cytometric analysis; type: functional, cell-based
RAW264.7 [18] = assay: Induction of phagocytosis in zymosan A stimulated mouse RAW264.7 cells assessed as upregulation of CD204 protein level at 5.0 uM incubated for 12 hrs by flow cytometric analysis; type: functional, cell-based
RAW264.7 [19] = assay: Induction of phagocytosis in zymosan A stimulated mouse RAW264.7 cells assessed as upregulation of CD32 mRNA expression at 5.0 uM incubated for 12 hrs by qRT-PCR analysis; type: functional, cell-based
CYP1A1 [20] = target: T2, CYP1A1 (Homo sapiens, UniProt P04798); assay: Inhibition of CYP1A1 in human Caco-2 cells at 500 nM incubated for 12 hrs by EROD assay relative to control; type: cell-based
T2 sequence (P04798 whole entry): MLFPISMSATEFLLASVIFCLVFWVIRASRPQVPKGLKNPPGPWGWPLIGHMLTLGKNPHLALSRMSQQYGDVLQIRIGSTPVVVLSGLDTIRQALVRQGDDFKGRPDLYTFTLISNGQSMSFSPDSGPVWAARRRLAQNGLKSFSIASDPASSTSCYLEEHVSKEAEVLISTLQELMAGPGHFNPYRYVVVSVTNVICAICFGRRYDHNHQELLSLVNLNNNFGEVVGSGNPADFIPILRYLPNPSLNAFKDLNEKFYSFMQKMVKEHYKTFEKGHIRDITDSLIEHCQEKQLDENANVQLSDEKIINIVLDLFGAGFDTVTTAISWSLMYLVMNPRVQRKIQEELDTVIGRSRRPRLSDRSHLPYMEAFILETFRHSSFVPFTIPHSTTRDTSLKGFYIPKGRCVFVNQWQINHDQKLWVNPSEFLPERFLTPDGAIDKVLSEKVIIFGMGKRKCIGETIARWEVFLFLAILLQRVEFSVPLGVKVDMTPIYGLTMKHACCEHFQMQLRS

CYP1A1 [21] = target: T1, CYP1A1; assay: Inhibition of CYP1A1 in mouse RAW264.7 cells at 500 nM incubated for 12 hrs by EROD assay relative to control; type: cell-based

SMILES	fold induction at 12 h, 0.5 µM (CYP1A1 [1])	fold induction at 12 h, 5 µM (CYP1A1 [2])	Activity [3]	Activity [4]	Activity [5]	Activity (Staphylococcus aureus [6])	Activity (Acinetobacter baumannii [7])	Activity (Staphylococcus aureus [8])	Activity (Mus musculus [9])	Activity (Mus musculus [10])	Activity (Staphylococcus aureus [11])	Activity (Acinetobacter baumannii [12])	Activity (Acinetobacter baumannii [13])	Activity (RAW264.7 [14])	Activity (RAW264.7 [15])	Activity (Staphylococcus aureus [16])	Activity (RAW264.7 [17])	Activity (RAW264.7 [18])	Activity (RAW264.7 [19])	other results
Cn1cc(/C=C/C(=O)c2ccc3c(c2)n(C)c(=O)n3C)c2ccccc21	0.72	0.25	Non-toxic	Non-toxic	Non-toxic	Active	Active	inactive	inactive	inactive	Active	Active	>70%	Active	Active	Active	Active	Active	Active	–
C#Cc1ccccc1/C=C/C(=O)c1ccc2c(c1)n(C)c(=O)n2C	0.07	0.03	Non-toxic	Non-toxic	Non-toxic	Active	Active	inactive	inactive	inactive	Active	Active	>70%	Active	Active	Active	Active	Active	Active	inhibition at 12 h, 0.5 µM (CYP1A1 [20]): < 10%; inhibition at 12 h, 0.5 µM (CYP1A1 [21]): < 10%
